Experimental data as given in patent US5561126A, “4-oxa-1-azabicyclo [3,2,0] heptan-7-one derivatives as antitumor agents” (Taiho Pharmaceutical Co., Ltd., priority 1992, dated 1996).
Values after ≈ are worked out from the molar mass of the structure shown.

These compounds were tested on KB cells (assay: In Vitro KB Cell Cytotoxicity Assay (crystal violet)). Details: Homo sapiens, 72 h, read-out: Cytotoxicity TD50 KB.
Assay type: cell-based
Description: KB cells were cultivated in Eagles minimum essential medium supplemented with 10% calf serum and incubated at 37° C. in a humidified 5% CO2 atmosphere to prepare a cell stock. Cells were counted using a neubauer hemocytometer and seeded in 96 well plates at 100 μl of 3×10^4 cells/ml and cultured for one day. […] Control wells were identical except that test compound was absent. These were cultured for three days. […] Then stained with 100 μl of 0.05% crystal violet for 15 minutes, washed with water and dried. The wells were eluted with 100 μl of 0.05M NaH2 PO4 /ethanol (1:1 v/v) and read at OD540 on a multiscan spectrophotometer. TD50 values were calculated using the following formula.
With `O=C(O)/C=C/C(=O)OC[C@H]1CN2C(=O)C[C@@H]2O1` (relative stereo) [compound 27, Sodium [(3RS, 5SR)-(4-oxa-1-azabicyclo[3,2,0]heptan-7-one-3-yl)methyl]fumarate] the CC50 was 2.4 µg/mL.
For `O=C(OC[C@H]1CN2C(=O)C[C@@H]2O1)C(O)C(O)C(=O)OC[C@H]1CN2C(=O)C[C@@H]2O1` (mixture of isomers) [compound 29, Bis [(3RS, 5SR)-(4-oxa-1-azabicyclo[3,2,0]heptan-7-one-3-yl)-methyl]-2,3-dihydroxysuccinate], the CC50 was 0.3 µg/mL (≈ 0.749 µM).
With `Cc1cc(C)c(C(=O)OC[C@H]2CN3C(=O)C[C@@H]3O2)c(C)c1` (relative stereo) [compound 19] the CC50 was 2 µg/mL (≈ 6.91 µM).
`O=C(OC[C@H]1CN2C(=O)C[C@@H]2O1)c1ccccc1` (racemic) [compound 18, (3RS, 5SR)-3-Benzoyloxymethyl-4-oxa-1-azabicyclo[3,2,0]heptan-7-one] showed a CC50 of 5 µg/mL (≈ 20.2 µM).
`O=C(OC[C@H]1CN2C(=O)C[C@@H]2O1)c1ccc(O)c(O)c1` (relative stereo) [compound 22] gave a CC50 of 2.5 µg/mL (≈ 8.95 µM).
Compound `O=C(O)C1CCCCC1C(=O)OC[C@H]1CN2C(=O)C[C@@H]2O1` (relative stereo) [compound 24, Sodium (3RS, 5SR)-2-(4-oxa-1-azabicyclo [3,2,0]heptan-7-one-3-methyloxycarbonyl)cyclohexyl-2-carboxylate] has a CC50 of 0.7 µg/mL.
Work on `O=C1C[C@@H]2O[C@@H](CSc3ccccc3)CN12` (racemic) [compound 44, (3RS, 5SR)-3-Phenylthiomethyl-4-oxa-1-azabicyclo[3,2,0]heptan-7-one] yielded a CC50 of 3 µg/mL (≈ 12.7 µM).
Work on `O=C(OC[C@H]1CN2C(=O)C[C@@H]2O1)c1cc(F)c(F)cc1F` (racemic) [compound 32, (3RS, 5SR)-3-(2,4,5-Trifluorobenzoyloxymethyl)-4-oxa-1-azabicyclo[3,2,0]heptan-7-one] yielded a CC50 of 0.3 µg/mL (≈ 0.996 µM).
`C#CCCC(=O)OC[C@H]1CN2C(=O)C[C@@H]2O1` (racemic) [compound 17, (3RS, 5SR)-3-(4-Pentynoyloxymethyl)-4-oxa-1-azabicyclo [3,2,0]heptan-7-one] showed a CC50 of 0.27 µg/mL (≈ 1.21 µM).
`CCCCC(C)C(=O)OC[C@H]1CN2C(=O)C[C@@H]2O1` (relative stereo) [compound 12] gave a CC50 of 0.4 µg/mL (≈ 1.57 µM).
`CC(C)CCC(=O)OC[C@H]1CN2C(=O)C[C@@H]2O1` (relative stereo) [compound 11] gave a CC50 of 0.4 µg/mL (≈ 1.66 µM).
In the case of `COc1cc(C(=O)OC[C@H]2CN3C(=O)C[C@@H]3O2)cc(OC)c1O` (racemic) [compound 35, (3RS, 5SR)-3-(4-Hydroxy-3,5-dimethoxybenzoyloxymethyl)-4-oxa-1-azabicyclo [3,2,0]heptan-7-one], the CC50 is reported as 0.8 µg/mL (≈ 2.47 µM).
For `COc1ccc(COC[C@H]2CN3C(=O)C[C@@H]3O2)cc1OC` [39A], the CC50 was 0.56 µg/mL (≈ 1.91 µM).
For `COc1ccc(COC[C@H]2CN3C(=O)C[C@H]3O2)cc1OC` [39B, (3R,5R)-3-(3,4-Dimethoxybenzyloxymethyl)-4-oxa-1-azabicyclo[3,2,0] heptan-7-one], the CC50 was 0.57 µg/mL (≈ 1.94 µM).
`O=C1C[C@@H]2O[C@@H](CS(=O)(=O)c3ccccc3)CN12` (racemic) [compound 46, (3RS, 5SR)-3-Phenylsulfonylmethyl-4-oxa-1-azabicyclo[3,2,0]heptan-7-one] was tested, and the CC50 was 2 µg/mL (≈ 7.48 µM).
`CC(C)C(=O)OC[C@H]1CN2C(=O)C[C@@H]2O1` (racemic) [compound 9, (3RS, 5SR)-3-(2-Methylpropionyloxymethyl)-4-oxa-1-azabicyclo [3,2,0]heptan-7-one] was tested, and the CC50 was 0.4 µg/mL (≈ 1.88 µM).
In the case of `Cc1ccc(S(=O)(=O)C[C@H]2CN3C(=O)C[C@@H]3O2)cc1` (racemic) [compound 51, (3RS, 5SR)-3-(4-Methylbenzenesulfonyl)methyl-4-oxa-1-azabicyclo[3,2,0]heptan-7-one], the CC50 is reported as 1 µg/mL (≈ 3.55 µM).
`O=C(O)CCC(=O)OC[C@H]1CN2C(=O)C[C@@H]2O1` (relative stereo) [compound 26] gave a CC50 of 9.8 µg/mL (≈ 40.3 µM).
`CC(C)CC(=O)OC[C@H]1CN2C(=O)C[C@@H]2O1` (relative stereo) [compound 10, (3RS, 5SR)-3-Methylbutyryloxymethyl-4-oxa-1-azabicyclo [3,2,0]heptan-7-one] gave a CC50 of 0.25 µg/mL (≈ 1.1 µM).
